Results on two compounds are retold here after patent publication EP4389827A1, “AMINOGLYCOSIDE-LINKED PHOTOSENSITIZERS” (Centre National de la Recherche Scientifique, priority 2022, dated 2024).

One test concerns A. baumannii DSM30011. The experiment in a line: Minimal inhibitory concentration (EUCAST), with or without 660 nm irradiation. In kind it is cell-based, Acinetobacter baumannii. The note with it: for MIC: Acinetobacter baumannii, DSM30011, light or radiation study, 18 h, read-out: MIC. As to the method: (§1) Acinetobacter baumannii DSM30011, Bacillus subtilis 168, Pseudomonas aeruginosa PA14, P. aeruginosa PAO1, Staphylococcus aureus Mu50, S. aureus Newman and S. aureus USA300 were all grown in MHB-CA at 37°C with an agitation of 180 rpm. Candida albicans SC5314 was grown in yeast extract peptone dextrose broth at 35°C with an agitation of 180 rpm.
(§2) Minimal inhibitory concentrations (MICs) for selected bacteria were investigated according to the EUCAST guidelines. Serial dilutions of the compounds, photosensitizers and aminoglycosides were made in MHB-CA in 384-well plates. Stationary-phase cells were diluted in MHB-CA to have a final concentration of 5.5 × 10^5 CFU/mL. Samples were incubated in the dark for 20 minutes at 37°C and either irradiated at 660 nm for 30 minutes with a LED device or kept in the dark. Irradiated samples received a total of 168 mJ/mm^2. Plates were then incubated at 37°C for 18 hours and MICs were evaluated visually. Triplicates were done and the synergy, or fractional inhibitory concentration (FIC), was calculated according to Doern et al., 2014: FIC = (MIC of AB)/(MIC of A) + (MIC of AB)/(MIC of B) [formula]

In another test the test system is K. pneumoniae LM21. The test is described as above. In kind it is cell-based. The note with it: read-out: MIC. As to the method:
as §2

A further test relates to E. coli KanR. Described as above. The class given is cell-based. As to the method:
as §2

The subject of a further test is E. coli pET-29. Described as above. The class given is cell-based. As to the method:
as §2

The subject of the next test is B. subtilis 168. The description is as above. The class given is cell-based, Bacillus subtilis. The note with it: read-out: MIC. As to the method: as §1, §2
The next test relates to C. albicans SC5314. The experiment in a line: Minimal inhibitory concentration, with or without 660 nm irradiation. The class given is cell-based. The note with it: Candida albicans, SC5314, light or radiation study, 18 h, read-out: MIC. As to the method: as §1, §2
Test [1] concerns A. baumannii DSM30011 persister cells. The test can be described thus: Antibacterial photodynamic therapy on persister cells. The class given is cell-based, Acinetobacter baumannii. The note with it: persister cells (200 µM neomycin, 24 hours); aPDT, irradiated, 5 J/mm^2. On the procedure:
Persister cells were obtained after incubation with 200 µM of neomycin for 24 hours.

The subject of the next test is P. aeruginosa PA14. The experiment in a line: Antibacterial photodynamic therapy on planktonic cells (CFU count). The class given is cell-based. The conditions noted are these: Pseudomonas aeruginosa, PA14, light or radiation study, 0.5 h, irradiated, 5 J/mm^2 (Figure 5a), read-out: Survival drop. On the procedure:
as §1
(§3) Cells were brought to stationary phase by incubating them in MHB-CA for at least 18 hours at 37°C with 180 rpm and diluted to an optical density of 1.0 just before the experiment. Cells were incubated for 20 minutes with either the compounds, photosensitizers alone, or aminoglycosides alone. Unless stated otherwise, a concentration of 10 µM was used for all experiments and samples were irradiated for 30 minutes at 660 nm with the Solis-660C lamp from ThorLabs, receiving a total of 5 J/mm^2. After illumination, cells were washed with phosphate-buffered saline (PBS) 1X, serially diluted and plated on Mueller-Hinton agar. The next day, colony forming units (CFUs) were counted.

In another test the test system is P. aeruginosa PAO1. The test is described as above. The class given is cell-based. The conditions noted are these: Pseudomonas aeruginosa, PAO1, light or radiation study, 0.5 h, 10 µM, irradiated, 5 J/mm^2 (Figure 5c), read-out: Survival drop. As to the method:
as §1, §3

In test [2] the test system is P. aeruginosa PA14 persister cells. The test can be described thus: Antibacterial photodynamic therapy on persister cells. In kind it is cell-based, Pseudomonas aeruginosa. The conditions noted are these: persister cells (1 mM tobramycin, 24 hours); aPDT, 5 J/mm^2. On the procedure: In P. aeruginosa PA14, persister cells were obtained by treating with 1 mM of tobramycin for 24 hours. The effect of aPDT was not as impactful (Figures 9a, 9b), but there was a slight drop of 1.6 and 1.1 log10 CFU/mL for Neo-Ce6 and Tobra-Ce6, respectively.

The subject of test [3] is S. aureus Newman persister cells. Described as above. The class given is cell-based, Staphylococcus aureus. The conditions noted are these: persister cells (24 hours, 1 mM neomycin); irradiated, 5 J/mm^2 (Figure 7a). As to the method:
Persister plateau and AG concentration varied from one species to another. In S. aureus USA300, a stable plateau was obtained following 6 hours of incubation with 2 mM of neomycin. […] This control is crucial to make sure that a persister state has been achieved. […] As there are no significant differences between irradiated and non-irradiated samples, however, the production of singlet oxygen may not be the factor leading to cell death. In S. aureus Newman, cells were treated for 24 hours with 1 mM of neomycin. […] Although this synergy does exist, like in S. aureus USA300, there is no significant difference in survival for irradiated and non-irradiated samples, except for Ce6.

Setting [4] is: with (+) irradiation, 660 nm 30 minutes, 168 mJ/mm^2.

By MIC is commonly meant the least concentration at which growth counts as inhibited.

Like-named read-outs stand apart in the source and are kept apart here.

Consider `C=Cc1c(C)c2cc3nc(c(CC(=O)O)c4[nH]c(cc5nc(cc1[nH]2)C(C)=C5CC)c(C)c4C(=O)O)[C@@H](CCC(=O)O)[C@@H]3C` [Ce6, chlorin e6], for which the MIC was > 64 µM in the test on A. baumannii DSM30011 (setting [4]); > 64 µM in the test on A. baumannii DSM30011 (without (-) irradiation); > 64 µM in the test with K. pneumoniae LM21 (Klebsiella pneumoniae, LM21, light or radiation study, 18 h, without (-) irradiation); > 64 µM in the test with K. pneumoniae LM21 (setting [4]); > 64 µM with E. coli KanR (Escherichia coli, light or radiation study, 18 h); > 64 µM in the test on E. coli KanR (setting [4]). Moreover, the minimum inhibitory concentration (MIC) in the test with E. coli pET-29 (Escherichia coli, PET29, light or radiation study, 18 h, without (-) irradiation) is > 64 µM; in the test on E. coli pET-29 (setting [4]) it was > 64 µM; with B. subtilis 168 (Bacillus subtilis, 168, light or radiation study, 18 h, without (-) irradiation), > 64 µM; in the test on B. subtilis 168 (setting [4]), > 64 µM; in the test with C. albicans SC5314 (setting [4]), 32 µM; with C. albicans SC5314 (without (-) irradiation), > 64 µM.
For `C=Cc1c(C)c2cc3nc(c(CC(=O)O)c4[nH]c(cc5nc(cc1[nH]2)C(C)=C5CC)c(C)c4C(=O)O)[C@@H](CCC(=O)NC[C@H]1O[C@H](O[C@@H]2[C@@H](O)[C@H](O[C@H]4O[C@H](CN)[C@@H](O)C[C@H]4N)[C@@H](N)C[C@H]2N)[C@H](O)[C@@H](N)[C@@H]1O)[C@@H]3C` [Tobra-Ce6], the drop in [1] turned out to be 1.8 log10 CFU/mL; in test [2] it was 1.1 log10 CFU/mL. In addition, the figures for the MIC in the test on A. baumannii DSM30011 (setting [4]) and in the test on A. baumannii DSM30011 (without (-) irradiation) were 2 to 4 µM and > 16 µM, respectively. Besides, the Synergy entry in the test on A. baumannii DSM30011 (conjugate with irradiation, from FIC) is given as “+”. For the same compound, the log reduction at 10 µM in the test with P. aeruginosa PA14 worked out at 2.6; in the test with P. aeruginosa PAO1, 3.5. Further, in test [3], the “persister cell survival (in words)” value is given as “significantly lower than in cells treated with Ce6 alone”.
